Reference: patent publication US7786171B2, “Amide derivatives as positive allosteric modulators and methods of use thereof” (Abbott Laboratories, priority 2008, dated 2010)

How the values were obtained:
human α7 NNR = biological target: T1, human α7 NNR (Homo sapiens, UniProt P36544); test: Two-electrode voltage-clamp in Xenopus laevis oocytes, potentiation of ACh-evoked α7 currents; assay type: cell-based; conditions: for Voltage-Clamp in Xenopus laevis Oocytes % max (degree of normalized potentiation): 0.1 mM ACh, normalized to reference PAM at 10 μM = 100%, ACh alone = 0%; for EC50: potentiation of 0.1 mM ACh-evoked α7 currents
T1 construct: expressed in transfected cells; host or cells: Xenopus laevis oocytes (cRNA injection)
T1 sequence (P36544 23-502): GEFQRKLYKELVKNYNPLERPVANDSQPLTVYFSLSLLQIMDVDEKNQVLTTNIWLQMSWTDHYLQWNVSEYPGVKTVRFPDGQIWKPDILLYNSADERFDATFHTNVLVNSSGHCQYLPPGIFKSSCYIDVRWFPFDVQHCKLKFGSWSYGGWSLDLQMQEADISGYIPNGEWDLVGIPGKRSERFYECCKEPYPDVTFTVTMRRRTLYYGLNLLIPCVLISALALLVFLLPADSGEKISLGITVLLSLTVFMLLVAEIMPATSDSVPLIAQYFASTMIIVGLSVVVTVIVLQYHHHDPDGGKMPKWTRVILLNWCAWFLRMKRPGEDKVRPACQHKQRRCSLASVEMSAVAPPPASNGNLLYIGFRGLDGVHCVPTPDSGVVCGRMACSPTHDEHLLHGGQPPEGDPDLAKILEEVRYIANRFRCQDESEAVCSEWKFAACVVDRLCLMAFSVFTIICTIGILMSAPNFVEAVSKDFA
Method: X. laevis oocytes were prepared for electrophysiological experiments as described in the literature (see for example. Briggs, C. A. el al, Neuropharmacology. 1995. 34: 583-590; Briggs, C. A. et al., Neuropharmacology, 1998, 37: 1095-1102, which are incorporated herein by reference). In brief, three to four lobes from ovaries of female adult X. laevis frogs were removed and defolliculated after treatment with collagenase type 1A (2 mg/mL; Sigma) prepared in low-Ca^2+ Barth's solution (90 mM NaCl, 1.0 mM KCl, 0.66 mM NaNO3, 2.4 mM NaHCO3, 10 mM HEPES, 2.5 mM sodium pyruvate, 0.82 mM MgCl2, and 0.5% (v/v) penicillin-streptomycin solution, pH=7.55, Sigma) for about 1.5 hours to about 2 hours at about 18° C. under constant agitation to obtain isolated oocytes.
The isolated oocytes were injected with about 4 ng to about 6 ng of human α7 NNR cRNA, kept at about 18° C. in a humidified incubator in modified Barth's solution (90 mM NaCl, 1.0 mM KCl, 0.66 mM NaNO3, 2.4 mM NaHCO3, 10 mM HEPES, 2.5 mM sodium pyruvate, 0.74 mM CaCl2, 0.82 mM MgCl2, 0.5% (v/v) penicillin-streptomycin solution, pH 7.55) and used about 2 to 7 days after injection. Responses were measured by two-electrode voltage clamp using a Parallel Oocyte Electrophysiology Test Station (Abbott, Abbott Park, Ill.) (see for example, Trumbull, J. D., et al., Receptors Channels, 2003, 9: 19-28, which is incorporated herein by reference). During recordings, the oocytes were bathed in Ba^2+-OR2 solution (90 mM NaCl, 2.5 mM KCl, 2.5 mM BaCl2, 1.0 mM MgCl2, 5.0 mM HEPES, and 0.0005 mM atropine, pH 7.4) to prevent activation of Ca^2+-dependent currents and held at −60 mV at room temperature (about 20° C.). Test compounds were pre-applied alone for […] and subsequently in the presence of 0.1 mM acetylcholine (ACh) as the agonist. The data were expressed as percentage potentiation of the acetylcholine-evoked current normalized to the response of reference PAM (at 10 μM, N′-[(2Z)-3-(2,2-difluoro-1,3-benzodioxol-5-yl)-5-methyl-1,3-thiazol-2(3 H)-ylidene]-N,N-dimethylurea) taken as 100% and the response to submaximum ACh without any PAM as 0%.

σ1 receptors = biological target: T2, σ1 receptors (Homo sapiens, UniProt Q99720); test: Sigma receptor binding assay, σ1 ([3H](+)pentazocine displacement, Jurkat cells); conditions: test compound 10 μM
T2 construct: The origin of the (σ1 and σ2 receptors were Jurkat cells and rat cerebral cortex, respectively); endogenous in cells; host or cells: Jurkat cells
T2 sequence (Q99720 whole entry): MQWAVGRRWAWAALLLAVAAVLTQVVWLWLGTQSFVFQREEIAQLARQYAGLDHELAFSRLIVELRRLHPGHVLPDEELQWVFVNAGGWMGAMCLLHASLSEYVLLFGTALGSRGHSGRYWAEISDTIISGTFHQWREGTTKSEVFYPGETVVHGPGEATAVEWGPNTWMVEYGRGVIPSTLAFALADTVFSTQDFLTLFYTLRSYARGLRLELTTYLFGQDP
Method: (§1) Sigma receptors are binding sites that interact with several psychoactive agents. Inhibition of specific binding of known ligands to sigma receptors (σ1 and σ2) was used to determine the selectivity of test compounds. The assays were performed as described previously in the literature (non-selective σ: Shirayama, Y., et al. Eur. J. Pharmacol. (1993), 237: 117-126. σ1: Ganapathy, M. E., et al. J. Pharmacol. Exp. Ther. (1999) 289: 251-260. σ2: Bowen, M. D., et al. Mol. Neuropharmacol. (1993) 3: 117-126.). The origin of the non-selective a receptors was rat cerebral cortex. The origin of the (σ1 and σ2 receptors were Jurkat cells and rat cerebral cortex, respectively.
(§2) Affinity for the receptors was determined by competitive displacement of specific ligands (8 nM of [^3H] 1,3-di(2-tolyl)guanidine for non-selective σ, 8 nM of [^3H](+)pentazocine for σ1 and 5 nM of [^3H]1,3-di(2-tolyl)guanidine for σ2) by test compounds. Nonspecific binding was determined by addition of an excess of an unlabelled binder (10 μM haloperidol).
(§3) The results are expressed as a percent inhibition of control specific binding (100−((measured specific binding/control specific binding)×100)) obtained in the presence of test compound (10 μM) as shown in Table 1. In addition, Table 1 includes data for the selected compounds from the voltage-clamp in Xenopus laevis oocytes assay.

σ2 receptors = biological target: T3, σ2 receptors (Rattus norvegicus, UniProt Q5U3Y7); test: Sigma receptor binding assay, σ2 ([3H]1,3-di(2-tolyl)guanidine displacement); conditions: test compound 10 μM; rat cerebral cortex
T3 construct: The origin of the (σ1 and σ2 receptors were Jurkat cells and rat cerebral cortex, respectively); from tissue; host or cells: rat cerebral cortex
T3 sequence (Q5U3Y7 1-176): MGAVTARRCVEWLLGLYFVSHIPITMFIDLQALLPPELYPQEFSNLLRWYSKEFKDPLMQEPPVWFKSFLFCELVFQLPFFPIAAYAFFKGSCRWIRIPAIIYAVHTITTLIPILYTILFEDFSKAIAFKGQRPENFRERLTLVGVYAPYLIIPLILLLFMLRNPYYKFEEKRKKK
Method: as §1, §2, §3

[1] = test system: non-selective σ receptors; test: Sigma receptor binding assay, non-selective σ ([3H]1,3-di(2-tolyl)guanidine displacement); conditions: test compound 10 μM; rat cerebral cortex
Method: as §1, §2, §3

[2] = test system: formalin-induced nociceptive behavior; test: Formalin-induced persistent nociceptive behavior assay; assay type: in vivo; conditions: mice; 10 mg/kg subcutaneously 10 minutes prior to formalin; phase 2, 20-45 minutes post formalin
Method: Nociception was assessed using the formalin test. The mice were placed in open plexiglass observation chambers for 30 minutes to allow them to acclimate to their surroundings: then they were removed for formalin administration. Mice were gently restrained while the dorsum of the hind paw was injected with 20 μL of 2.5% formalin into the plantar surface of the right hind paw with a 30-gauge needle. The animals were returned to the chambers and nociceptive behavior was observed immediately after formalin injection. Mirrors were placed in each chamber to enable unhindered observation. Nociceptive behavior was quantified as the time licking the injected paw for continuous 5 minutes (phase 1) and 20-45 minutes (phase 2), following formalin injection. Formalin-induced flinching/licking behavior was biphasic. The initial acute phase (phase 1.0-5 minutes) was followed by a relatively short quiescent period, which was then followed by a prolonged tonic response (phase 2, 20-45 minutes).

sensory gating T:C ratio = test: Sensory gating deficit in DBA/2 mice (N40 gating) assay; assay type: in vivo; conditions: dose 0.01 μmol/kg
Source text: Sensory gating is a basic central nervous system function that facilitates attending to important stimuli, and ignoring irrelevant background noise. A practical example of sensory gating is the ability to follow a conversation at a loud party. An experimental measure of sensory gating is the suppression of brainwave (evoked potential) responding to repetitive auditory stimuli. Schizophrenic patients can not suppress responding to repetitive stimuli, and are therefore considered to have sensory gating deficiencies.
DBA/2 mice (20-25 g, 8-10 week, Harlan) were used for gating experiments and handled in accordance with approved Association for Assessment and Accreditation of Laboratory Animal Care procedures. Mice were given food and water ad libitum and maintained on a 12-hour light/dark cycle (lights on at 0600 hours).
The surgical techniques employed were similar to those previously described (Connolly P M, et al. (2003) Brain Res 992(1):85-95). […]
To obtain EEG and evoked potentials (EPs), unanesthetized mice were recorded in acoustically isolated chambers (Med Associates). EEG biosignals were recorded from freely moving mice using flexible cable tethers and electrical swivels (Plastics One) and amplified with differential AC amplifiers (Grass Instrument Division, Astro-Med, West Warwick, R.I. USA). […]

α7 NNRs = α7 NNRs (Homo sapiens, UniProt P36544); conditions: IMR-32 cells
Chain of α7 NNRs (P36544 23-502): as the sequence (P36544 23-502) above
Method: Although cell types such as IMR-32 neuroblastoma and neurons are known to contain several nicotinic receptor subunits, α7 selective agonists in the present assay selectively stimulate calcium responses only in the presence of PAMs. Any suitable selective α7 agonist can be used.
IMR-32 neuroblastoma cells (ATCC) were grown to confluency in 162 cm^2 tissue culture flasks in minimum essential media supplemented with 10% fetal bovine serum and 1 mM sodium pyruvate, 0.1 mM non-essential amino acids and 1% antibiotic-antimycotic. […]
Calcium flux was measured using a calcium-3 assay kit (Molecular Devices, Sunnyvale, Calif.) or Fluo-4 (Invitrogen, Carlsbad, Calif.). […] Fluorescence measurements were read simultaneously from all the wells by a Fluorometric Imaging Plate Reader (FLIPR) at an excitation wavelength of 480 nm and an emission wavelength of 520 nm. Baseline fluorescence was measured for the first 10 seconds at which 50 μL of 3× concentrations of modulator/test compounds were added to the cell plate and incubated for three to five minutes. The fluorescence intensity was captured every second for the first 1 minute followed by every 2-5 seconds for an additional two to four minutes. This procedure was followed by 50 μL of 4× concentration of agonist and readings were taken for a period of three to five minutes as described above. […]

| SMILES | Voltage-Clamp in Xenopus laevis Oocytes % max (degree of normalized potentiation) (human α7 NNR) | EC50 (human α7 NNR) | inhibition at 10 µM (σ1 receptors) | inhibition at 10 µM (σ2 receptors) | % Inhibition of Binding at 10 μM σ [1] | reduction in licking duration (nociceptive behavior), phase 2 [2] | reduction of T:C (test:conditioned) ratios compared to vehicle (sensory gating T:C ratio) | calcium response to agonist in the presence of an allosteric modulator (α7 NNRs) |
| --- | --- | --- | --- | --- | --- | --- | --- | --- |
| Nc1ccc(CNC(=O)c2ccc(SC(F)(F)F)cc2)cc1 [Example 19, N-(4-aminobenzyl)-4-[(trifluoromethyl)thio]benzamide] | 120% | 5.4 µM |  |  | 6% |  |  |  |
| CNc1ccc(CNC(=O)c2ccc(SC(F)(F)F)cc2)cc1 [Example 20, N-[4-(methylamino)benzyl]-4-[(trifluoromethyl)thio]benzamide] | 99% | 0.097 µM |  |  | 39% | 68% | 23.7±8.9% |  |
| O=C(Cc1ccc(NCC2CC2)cc1)Nc1ccc(SC(F)F)cc1 [Example 43, 2-{4-[(cyclopropylmethyl)amino]phenyl}-N-{4-[(difluoromethyl)thio]phenyl}acetamide] | 2% | > 10 µM | 84% | 34% |  |  |  |  |
| CCN1C[C@]2(COC(=O)c3ccccc3N3C(=O)C[C@H](C)C3=O)CC[C@H](OC)[C@@]34[C@@H]5C[C@H]6[C@H](OC)[C@@H]5[C@](O)(C[C@@H]6OC)[C@@](O)([C@@H](OC)[C@H]23)[C@@H]14 [methyllycaconitine] |  |  |  |  |  |  |  | abolished the response |

More lines, main results first:

| Voltage-Clamp in Xenopus laevis Oocytes % max (degree of normalized potentiation) (human α7 NNR) | EC50 (human α7 NNR) | inhibition at 10 µM (σ1 receptors) | inhibition at 10 µM (σ2 receptors) | SMILES | % Inhibition of Binding at 10 μM σ [1] | reduction in licking duration (nociceptive behavior), phase 2 [2] | reduction of T:C (test:conditioned) ratios compared to vehicle (sensory gating T:C ratio) | calcium response to agonist in the presence of an allosteric modulator (α7 NNRs) |
| --- | --- | --- | --- | --- | --- | --- | --- | --- |
| 61% | 3.7 µM |  |  | O=C(NCc1cccc(-n2cccn2)c1)c1ccc(SC(F)(F)F)cc1 [Example 12, N-[3-(1H-pyrazol-1-yl)benzyl]-4-[(trifluoromethyl)thio]benzamide] |  |  |  |  |
| 94% | 0.18 µM | 8% | -1% | CN(C)c1ccc(CNC(=O)c2ccc(SC(F)(F)F)cc2)cc1 [Example 17, N-[4-(dimethylamino)benzyl]-4-[(trifluoromethyl)thio]benzamide] |  |  |  |  |
| 115% | 1.2 µM | 21% | -4% | CNc1ccc(CNC(=O)c2ccc(SC(F)F)cc2)cc1 [Example 22, 4-[(difluoromethyl)thio]-N-[4-(methylamino)benzyl]benzamide] |  |  |  |  |
